# Where a name gives a salt, the structure may show the parent alone.
# Target: T1, human C1s protein (Homo sapiens, UniProt P09871)
# T1 construct: A104
# T1 sequence (P09871 16-688): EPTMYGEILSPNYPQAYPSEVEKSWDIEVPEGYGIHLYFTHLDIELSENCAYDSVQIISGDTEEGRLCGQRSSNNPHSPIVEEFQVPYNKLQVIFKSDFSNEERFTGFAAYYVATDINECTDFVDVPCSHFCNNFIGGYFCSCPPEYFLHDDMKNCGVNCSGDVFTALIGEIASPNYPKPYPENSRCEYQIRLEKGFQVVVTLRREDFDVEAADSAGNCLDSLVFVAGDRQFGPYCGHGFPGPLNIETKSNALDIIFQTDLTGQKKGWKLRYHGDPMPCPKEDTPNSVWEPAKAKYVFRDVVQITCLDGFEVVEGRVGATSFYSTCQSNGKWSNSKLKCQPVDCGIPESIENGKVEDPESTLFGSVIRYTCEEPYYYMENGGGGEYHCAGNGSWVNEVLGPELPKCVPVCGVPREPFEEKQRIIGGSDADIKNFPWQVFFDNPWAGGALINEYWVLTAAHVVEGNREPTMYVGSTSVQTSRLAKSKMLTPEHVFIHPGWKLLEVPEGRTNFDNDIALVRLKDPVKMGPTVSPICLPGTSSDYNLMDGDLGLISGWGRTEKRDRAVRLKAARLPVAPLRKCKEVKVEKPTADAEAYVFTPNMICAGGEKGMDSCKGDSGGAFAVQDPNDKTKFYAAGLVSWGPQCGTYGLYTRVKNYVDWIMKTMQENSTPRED
# Assay: C1s enzymatic assay (hydrolysis of YLGR-Rh110-dPro)
# Format: biochemical
# Conditions: substrate YLGR-Rh110-dPro 20 μM, 15 min pre-incubation, 60 min RT, fluorescence, read-out: hC1s pIC50 (converted)
# Method: Compound Testing in the C1s Enzymatic Assay
# The enzyme cleaves the substrate with the release of Rh110 which is highly fluorescent. C1s inhibitors prevent the hydrolysis of the substrate thus resulting in a decrease of the signal.
# On the day of the experiment 0.1 mg/mL BSA (Sigma, B4287) is added fresh to the buffer. The test item stock solutions are serially diluted 1:3 or 1:4 or 1:5 with DMSO, 11-point curves, in a 384-well compound plate. Nafamostat concentration curve is always included in the assay plate as a reference control.
# The high controls are prepared dispensing in 0.25 μL DMSO in column 23, rows AH or AP and low controls with 0.25 μL of 0.1 M Nafamostat. […] The YLGR-Rh110-dPro substrate is prepared as 2× of the final assay concentration of 20 μM. 1/well of 2× enzyme solution is dispensed and pre-incubated for 15 min with the compounds. The enzymatic reaction is then started with 5 μL/well of the 2× substrate solution.
row,IC50 [nM],Structure (SMILES)
1,11.2,"CC(C)NC(=O)c1ccc(B(O)O)cc1-c1ccc2c(N)cnnc2c1 [Example 120, [3-(4-aminocinnolin-7-yl)-4-(propan-2-ylcarbamoyl)phenyl]boronic Acid Formic Acid Salt]"
2,55,"Nc1cnnc2cc(-c3ccc4c(c3)B(O)ON=C4)ccc12 [Example 156, 7-(4-aminocinnolin-7-yl)-1H-2,3,1-benzoxazonin-1-ol Formic Acid Salt]"
3,1.58,"COc1cc(C(F)(F)F)c(B(O)O)cc1-c1ccc2c(N)nnc(C)c2c1 [Example 37, [5-(1-amino-4-methylphthalazin-6-yl)-4-methoxy-2-(trifluoromethyl)phenyl]boronic Acid Formic Acid Salt]"
4,15.1,"COc1ccc(B(O)O)cc1-c1cc(F)c2c(N)cnnc2c1 [Example 31, [3-(4-amino-5-fluorocinnoline-7-yl)-4-methoxyphenyl]boronic Acid]"
5,1.91,"COc1c(-c2ccc3c(N)nnc(C)c3c2)cc(B(O)O)cc1C(F)(F)F [Example 49, [3-(1-amino-4-methylphthalazin-6-yl)-4-methoxy-5-(trifluoromethyl)phenyl]boronic Acid]"
6,1.48,"COc1c(F)cc(B(O)O)cc1-c1ccc2c(N)nnc(C)c2c1 [Example 57, [3-(1-amino-4-methylphthalazin-6-yl)-5-fluoro-4-methoxyphenyl]boronic Acid Trifluoroacetic Acid Salt]"
7,13.2,"Nc1cnnc2cc(-c3ccc(CC(=O)O)c(B(O)O)c3)ccc12 [Example 127, 2-[4-(4-aminocinnolin-7-yl)-2-(dihydroxyboranyl)phenyl]acetic Acid]"
8,17.4,"COc1ccc(B(O)O)cc1-c1cc2nncc(N)c2cc1F [Example 92, [3-(4-amino-6-fluorocinnoline-7-yl)-4-methoxyphenyl]boronic Acid]"
9,1.91,"Cc1nnc(N)c2ccc(-c3cc(B(O)O)cc(F)c3C#N)cc12 [Example 36, [3-(1-amino-4-methylphthalazin-6-yl)-4-cyano-5-fluorophenyl]boronic Acid Formic Acid Salt]"
10,1.7,"Cc1nnc(N)c2ccc(-c3cc(B(O)O)ccc3OC(F)(F)F)cc12 [Example 15, [3-(1-amino-4-methylphthalazin-6-yl)-4-(trifluoromethoxy)phenyl]boronic Acid]"
11,1.95,"Cc1nnc(N)c2ccc(-c3ccc(C(F)(F)F)c(B(O)O)c3)cc12 [Example 74, [5-(1-amino-4-methylphthalazin-6-yl)-2-(trifluoromethyl)phenyl]boronic Acid]"
12,1.05,"CC1(C)COC(COc2ccc(B(O)O)cc2-c2ccc3c(N)cnnc3c2)C1 (stereo not shown) [Example 114, [3-(4-aminocinnolin-7-yl)-4-[(4,4-dimethyloxolane-2-yl)methoxy]phenyl]boronic Acid]"
13,6.76,"Cc1nnc(N)c2ccc(-c3cc(B(O)O)ccc3NC(=O)CCC(C)C)cc12 [Example 61, [3-(1-amino-4-methylphthalazin-6-yl)-4-(4-methylpentanoylamino)phenyl]boronic Acid Formic Acid Salt]"
14,513,"CC(C)c1nnc(N)c2ccc(-c3cccc(B(O)O)c3)cc12 [Example 9, [3-(1-amino-4-propan-2-ylphthalazin-6-yl)phenyl]boronic Acid Hydrochloric Acid Salt]"

# The next lines start with the compound.
row,Structure (SMILES),IC50 [nM]
1,"Nc1cnnc2cc(-c3cc(B(O)O)ccc3OC[C@@H]3CC(F)(F)CN3)ccc12 [Example 79, [3-(4-aminocinnolin-7-yl)-4-[[(2S)-4,4-difluoropyrrolidin-2-yl]methoxy]phenyl]boronic acid]",0.891
2,COc1ccc(B(O)O)cc1-c1cc(F)c2c(N)nnc(C)c2c1 [Example 55],6.61
3,"COc1cc(C)c(B(O)O)cc1-c1ccc2c(N)cnnc2c1 [Example 134, [5-(4-aminocinnolin-7-yl)-4-methoxy-2-methylphenyl]boronic Acid Formic Acid Salt]",2.09
4,"Nc1cnnc2cc(-c3cc(F)c4c(c3)B(O)OCC4)ccc12 [Example 99, 7-(4-aminocinnolin-7-yl)-5-fluoro-3,4-dihydro-1H-2,1-benzoxazonin-1-ol]",1.55
5,"Cc1nnc(N)c2ccc(-c3cnc(C(F)(F)F)c(B(O)O)c3)cc12 [Example 71, [5-(1-amino-4-methylphthalazin-6-yl)-2-(trifluoromethyl)pyridin-3-yl]boronic Acid]",2.95
6,"Cc1nnc(N)c2ccc(-c3ccc(NC(=O)C(C)C)c(B(O)O)c3)cc12 [Example 89, [5-(1-amino-4-methylphthalazin-6-yl)-2-(2-methylpropanamido)phenyl]boronic Acid]",5.89
7,"CC1(C)Cc2cc(B(O)O)cc(-c3ccc4c(N)cnnc4c3)c2O1 [Example 170, [7-(4-aminocinnolin-7-yl)-2,2-dimethyl-2,3-dihydro-1-benzofuran-5-yl]boronic Acid Formic Acid Salt]",1.07
8,"CC(C)NC(=O)COc1ccc(B(O)O)cc1-c1ccc2c(N)cnnc2c1 [Example 76, [3-(4-aminocinnolin-7-yl)-4-[2-oxo-2-(propan-2-ylamino)ethoxy]phenyl]boronic Acid]",2.88
9,"Cc1nnc(N)c2ccc(-c3cc(B(O)O)ccc3F)cc12 [Example 19, [3-(1-amino-4-methylphthalazin-6-yl)-4-fluorophenyl]boronic acid formic acid salt]",1.35
10,"COc1ccc(B(O)O)cc1-c1ccc2c(N)ccnc2c1 [Example 109, [3-(4-aminoquinolin-7-yl)-4-methoxyphenyl]boronic Acid]",871
11,"Nc1cnnc2cc(-c3cc(B(O)O)ccc3Oc3cncs3)ccc12 [Example 168, [3-(4-aminocinnolin-7-yl)-4-(1,3-thiazol-5-yloxy)phenyl]boronic Acid Formic Acid Salt]",1.32
12,"Nc1cnnc2cc(-c3cc(B(O)O)cc4c3OC(F)(F)O4)ccc12 [Example 128, [7-(4-aminocinnolin-7-yl)-2,2-difluoro-2H-1,3-benzodioxol-5-yl]boronic Acid]",0.55
13,"Nc1cnnc2cc(-c3cc(B(O)O)ccc3OCC3(C(F)(F)F)CC3)ccc12 [Example 91, [3-(4-aminocinnolin-7-yl)-4-{[1-(trifluoromethyl)cyclopropyl]methoxy}phenyl]boronic Acid]",1.62
14,"Cc1nnc(N)c2ccc(-c3cc(B(O)O)ccc3NC(=O)CC(C)C)cc12 [Example 59, [3-(1-amino-4-methylphthalazin-6-yl)-4-(3-methylbutanoylamino)phenyl]boronic Acid Formic Acid Salt]",3.24
15,"COc1cc(C(F)(F)F)c(B(O)O)cc1-c1ccc2c(N)cnnc2c1 [Example 83, [5-(4-aminocinnolin-7-yl)-4-methoxy-2-(trifluoromethyl)phenyl]boronic Acid]",4.57
16,"COc1ccc(B(O)O)cc1-c1cc(C)c2c(N)cnnc2c1 [Example 67, [3-(4-amino-5-methylcinnolin-7-yl)-4-methoxyphenyl]boronic Acid]",17
17,"Nc1cnnc2cc(-c3cc(B(O)O)ccc3N3CCNS3(=O)=O)ccc12 [Example 165, [3-(4-aminocinnolin-7-yl)-4-(1,1-dioxo-1,2,5-thiadiazolidin-2-yl)phenyl]boronic Acid]",7.41
18,"Cc1nnc(N)c2ccc(-c3cc(P(C)(C)=O)cc(B(O)O)c3F)cc12 [Example 47, [3-(1-amino-4-methylphthalazin-6-yl)-5-dimethylphosphoryl-2-fluorophenyl]boronic Acid Formic Acid Salt]",75.9
19,"Nc1cnnc2cc(-c3cc(B(O)O)cc4ccoc34)ccc12 [Example 100, [7-(4-aminocinnolin-7-yl)-1-benzofuran-5-yl]boronic Acid]",0.776
20,"COc1ccc(B(O)O)cc1-c1ccc2ccncc2c1 [Example 161, [3-(isoquinolin-7-yl)-4-methoxyphenyl]boronic Acid]",> 25100
21,"Cc1nnc(N)c2ccc(-c3cc(B(O)O)cnc3C(F)(F)F)cc12 [Example 84, [5-(1-amino-4-methylphthalazin-6-yl)-6-(trifluoromethyl)pyridin-3-yl]boronic Acid]",11.7
22,"Nc1cnnc2cc(-c3c(OC(F)F)ccc(B(O)O)c3F)ccc12 [Example 97, [3-(4-aminocinnolin-7-yl)-4-(difluoromethoxy)-2-fluorophenyl]boronic Acid]",11.7
23,"Cc1cc(OC(F)F)c(-c2ccc3c(N)cnnc3c2)cc1B(O)O [Example 108, [5-(4-aminocinnolin-7-yl)-4-(difluoromethoxy)-2-methylphenyl]boronic Acid]",1.86

# From US12509474B2, “Inhibitors of complement factors and uses thereof” (Annexon, Inc., priority 2020, dated 2025)
